Like-named read-outs stand apart in the source and are kept apart here.
Columns and labels:
[1] = Relative activity of resolved enantiomers/diastereomers (assay not stated); details: compared with the other eluting peak
[2] = target: T1, EP4 (Homo sapiens, UniProt P35408); assay: Functional calcium flux assay, EP4; format: cell-based; details: stably transfected HEK293 cells; PGE2 10 nM; read-out: EP4 Ca2+-flux assay IC50
T1 construct: host or cells: stably transfected HEK293 cells co-expressing a promiscuous G protein and a clytin variant

[3] = target: T2, EP2 (Homo sapiens, UniProt P43116); assay: cell-based;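 also: functional calcium flux assay in stably transfected HEK293 cells expressing EP2 coupled via a promiscuous G protein, clytin luminescence read as area under the curve, 30 min compound preincubation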
Description: (§1) Each receptor subtype has an additional promiscuous G protein added in order to couple the aforementioned receptor to the calcium signaling pathway. The parental cell line used also expresses a novel variant of clytin, a calcium-activated photo-protein, to enable sensitive luminescent detection. Briefly, cells were plated at 50,000 cells-per-well in black, clear bottom 96-well plates. The plated cells were allowed to sit at room temperature for 30 min prior to transferring to a humidified, 37° C., 5% CO2 incubator for 18 to 24 h. Assay buffer (HBSS with 20 mM HEPES) and loading buffer (assay buffer plus 10 μM coelenterazine) were prepared on the day of the assay. Assays were performed by aspirating media from the assay plate and washing once with assay buffer, then replacing with loading buffer and allowing the cells to incubate for 1.5 h at room temperature. Compounds were prepared in assay buffer at a 3× final concentration in non-binding plates. Compounds were added to the cell plates and incubated for 30 min at room temperature. The prostanoid receptor ligand PGE2 was prepared at a 4× dilution ratio for a final concentration of 10 nM. Plates were run on a Flexstation™ using a 100 ms integration luminescence protocol for a total of 60 sec with ligand addition at 15 sec. Data were obtained from relative light units as measured by area under the curve.

[4] = target: T2, EP2
Description: as §1

T2 sequence (P43116 whole entry): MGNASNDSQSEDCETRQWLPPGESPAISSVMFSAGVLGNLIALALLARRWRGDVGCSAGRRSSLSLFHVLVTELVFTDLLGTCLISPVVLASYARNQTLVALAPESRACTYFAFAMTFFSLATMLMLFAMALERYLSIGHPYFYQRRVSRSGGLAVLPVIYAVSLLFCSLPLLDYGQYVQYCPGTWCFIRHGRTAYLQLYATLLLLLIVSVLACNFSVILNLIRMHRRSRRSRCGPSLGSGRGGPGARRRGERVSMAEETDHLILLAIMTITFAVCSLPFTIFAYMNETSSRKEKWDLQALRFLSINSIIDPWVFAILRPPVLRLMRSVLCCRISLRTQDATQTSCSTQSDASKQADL
T1 sequence (P35408 whole entry): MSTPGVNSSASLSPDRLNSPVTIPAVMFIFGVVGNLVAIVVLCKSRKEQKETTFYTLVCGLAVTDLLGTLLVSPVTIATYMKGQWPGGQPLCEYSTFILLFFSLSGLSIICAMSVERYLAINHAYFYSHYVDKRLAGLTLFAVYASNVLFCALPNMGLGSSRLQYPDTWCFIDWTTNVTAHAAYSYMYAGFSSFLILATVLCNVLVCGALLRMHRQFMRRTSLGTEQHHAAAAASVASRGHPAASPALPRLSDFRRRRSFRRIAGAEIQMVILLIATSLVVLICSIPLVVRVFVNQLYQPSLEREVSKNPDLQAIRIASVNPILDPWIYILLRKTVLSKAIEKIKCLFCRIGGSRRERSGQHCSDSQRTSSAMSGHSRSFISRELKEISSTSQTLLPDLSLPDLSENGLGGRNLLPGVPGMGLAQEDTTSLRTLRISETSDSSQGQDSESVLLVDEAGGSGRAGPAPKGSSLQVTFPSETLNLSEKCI

In the case of `O=C(NC1CC2(C1)CC(C(=O)O)C2)c1ccc(F)c2ccn(Cc3ccc(-c4ccncc4)cc3)c12` (stereo not shown) [Example 24, (Sa)-6-(4-Fluoro-1-(4-(pyridin-4-yl)benzyl)-1H-indole-7-carboxamido)spiro[3.3]heptane-2-carboxylic acid], the “more active enantiomer / diastereomer after chiral SFC resolution” value (“more active enantiomer / diastereomer” below) [1] is reported as “more active enantiomer”.

With `O=C(NC1CC2(C1)CC(C(=O)O)C2)c1ccc(F)c2ccn(Cc3ccc(OC(F)(F)F)cc3)c12` (stereo not shown) [Example 8, (Sa)-6-(4-Fluoro-1-(4-(trifluoromethoxy)benzyl)-1H-indole-7-carboxamido)spiro[3.3]heptane-2-carboxylic acid] the “more active enantiomer / diastereomer” value [1] was “more active enantiomer”, the IC50 [2] was < 1 nM and the IC50 [3] was 43 nM.

With `CC(c1ccc(-c2ccccc2)cc1)n1ncc2cc(Cl)cc(C(=O)NC3CC4(C3)CC(C(=O)O)C4)c21` (single isomer, unassigned) [Example 174, (Sa)-6-(1-((R) or (S))-1-([1,1′-Biphenyl]-4-yl)ethyl)-5-chloro-1H-indazole-7-carboxamido)spiro[3.3]heptane-2-carboxylic acid] the “more active enantiomer / diastereomer” value [1] was “more active diastereomer”, the IC50 [2] was 6.4 nM and the IC50 [4] was < 25 nM.

For `[2H]C1(C(=O)O)CC2(CC(NC(=O)c3ccc(F)c4ccn(Cc5ccc(-c6ccccc6)cc5)c34)C2)C1` (stereo not shown) [Example 105, (Sa)-6-(1-([1,1′-Biphenyl]-4-ylmethyl)-4-fluoro-1H-indole-7-carboxamido)-2-deuterospiro[3.3]heptane-2-carboxylic acid], the “more active enantiomer / diastereomer” value [1] was “more active enantiomer”.

In the case of `O=C(NC1CC2(C1)CC(C(=O)O)C2)c1ccc(F)c2ccn(Cc3ccc(-c4ccc(OC5COC5)c(Cl)c4)cc3)c12` (racemic) [Example 21, (racemic)-6-(1-((3′-Chloro-4′-(oxetan-3-yloxy)-[1,1′-biphenyl]-4-yl)methyl)-4-fluoro-1H-indole-7-carboxamido)spiro[3.3]heptane-2-carboxylic acid], the IC50 [2] is reported as 1 nM and the IC50 [3] is reported as 51 nM.

For `COc1ncc(-c2ccc(Cn3ccc4c(F)ccc(C(=O)NC5CC6(C5)CC(C(=O)O)C6)c43)cc2)cc1Cl` (racemic) [Example 17, (racemic)-6-(1-(4-(5-Chloro-6-methoxypyridin-3-yl)benzyl)-4-fluoro-1H-indole-7-carboxamido)spiro[3.3]heptane-2-carboxylic acid], the IC50 [2] was 7 nM and the IC50 [3] was < 25 nM.

With `O=C(NC1CC2(C1)CC(C(=O)O)C2)c1ccc(F)c2ccn(Cc3ccc(-c4ccccc4)cc3F)c12` (stereo not shown) [Example 66, (Sa)-6-(4-Fluoro-1-((3-fluoro-[1,1′-biphenyl]-4-yl)methyl)-1H-indole-7-carboxamido)spiro[3.3]heptane-2-carboxylic acid] the IC50 [2] was < 1 nM and the IC50 [3] was < 25 nM.

In the case of `O=C(NC1CC2(C1)CC(C(=O)O)C2)c1cccc2cnn(Cc3ccc(OC(F)(F)F)cc3)c12` (racemic) [Example 32, (racemic)-6-(1-(4-(Trifluoromethoxy)benzyl)-1H-indazole-7-carboxamido)spiro[3.3]heptane-2-carboxylic acid], the IC50 [2] is reported as < 1 nM and the IC50 [3] is reported as < 25 nM.

With `O=C(NC1CC2(C1)CC(C(=O)O)C2)c1ccc(F)c2ccn(Cc3ccc(-c4ccccc4)c(F)c3)c12` (racemic) [Example 10, (racemic)-6-(4-Fluoro-1-((2-fluoro-[1,1′-biphenyl]-4-yl)methyl)-1H-indole-7-carboxamido)spiro[3.3]heptane-2-carboxylic acid] the IC50 [2] was < 1 nM and the IC50 [3] was < 25 nM.

For `[2H]C([2H])([2H])C([2H])(c1ccc(-c2ccccc2)cc1)n1ncc2cccc(C(=O)NC3CC4(C3)CC(C(=O)O)C4)c21` (racemic) [Example 168, (Sa)-6-(1-((racemic)-1-([1,1′-Biphenyl]-4-yl)ethyl-1,2,2,2-d4)-1H-indazole-7-carboxamido)spiro[3.3]heptane-2-carboxylic acid], the IC50 [2] was 1.2 nM and the IC50 [3] was 28 nM.

With `CCOc1cc(-c2ccc(Cn3ncc4cc(Cl)cc(C(=O)NC5CC6(C5)CC(C(=O)O)C6)c43)cc2)ccn1` (stereo not shown) [Example 136, (Sa)-6-(5-chloro-1-(4-(2-ethoxypyridin-4-yl)benzyl)-1H-indazole-7-carboxamido)spiro[3.3]heptane-2-carboxylic acid] the IC50 [2] was < 1 nM and the IC50 [3] was < 25 nM.

Compound `CS(=O)(=O)NC(=O)C1CC2(CC(NC(=O)c3ccc(F)c4ccn(Cc5ccc(OC(F)(F)F)cc5)c34)C2)C1` (stereo not shown) [Example 111, (Sa)-4-Fluoro-N-(6-((methylsulfonyl)carbamoyl)spiro[3.3]heptan-2-yl)-1-(4-(trifluoromethoxy)benzyl)-1H-indole-7-carboxamide] has an IC50 [2] of 1.2 nM and an IC50 [3] of 38 nM.

`COc1ccc2cc(-c3ccc(Cn4ccc5c(F)ccc(C(=O)NC6CC7(CC(CC(=O)O)C7)C6)c54)cc3)ccc2n1` (single isomer, unassigned) [Example 137, (Sa)-2-(6-(4-Fluoro-1-(4-(2-methoxyquinolin-6-yl)benzyl)-1H-indole-7-carboxamido)spiro[3.3]heptan-2-yl)acetic acid] showed an IC50 [2] of 3.2 nM and an IC50 [3] of 64 nM.

With `COc1cc(-c2ccc(Cn3ncc4cc(Cl)cc(C(=O)NC5CC6(C5)CC(C(=O)O)C6)c43)cc2)ccn1` (stereo not shown) [Example 135, (Sa)-6-(5-Chloro-1-(4-(2-methoxypyridin-4-yl)benzyl)-1H-indazole-7-carboxamido)spiro[3.3]heptane-2-carboxylic acid] the IC50 [2] was < 1 nM and the IC50 [3] was < 25 nM.

For `COc1ccc2cc(-c3ccc(Cn4ccc5c(F)ccc(C(=O)NC6CC7(CC(CC(=O)O)C7)C6)c54)cc3)ccc2n1` (single isomer, unassigned) [Example 140, (Ra)-2-(6-(4-Fluoro-1-(4-(2-methoxyquinolin-6-yl)benzyl)-1H-indole-7-carboxamido)spiro[3.3]heptan-2-yl)acetic acid], the IC50 [2] was < 1 nM and the IC50 [3] was < 25 nM.

In the case of `COc1ccc(-c2ccc(Cn3ccc4c(F)ccc(C(=O)NC5CC6(C5)CC(C(=O)O)C6)c43)cc2)cc1` (racemic) [Example 12, (racemic)-6-(4-fluoro-1-((4′-methoxy-[1,1′-biphenyl]-4-yl)methyl)-1H-indole-7-carboxamido)spiro[3.3]heptane-2-carboxylic acid], the IC50 [2] is reported as < 1 nM and the IC50 [3] is reported as < 25 nM.

With `[2H]C([2H])([2H])C([2H])(c1ccc(-c2ccccc2)cc1)n1ncc2c(Cl)ccc(C(=O)NC3CC4(C3)CC(C(=O)O)C4)c21` (racemic) [Example 166, (Sa)-6-(1-((racemic)-1-([1,1′-Biphenyl]-4-yl)ethyl-1,2,2,2-d4)-4-chloro-1H-indazole-7-carboxamido)spiro[3.3]heptane-2-carboxylic acid] the IC50 [2] was 3.9 nM and the IC50 [3] was 26 nM.

With `CCOc1cc(-c2ccc(Cn3ccc4c(F)ccc(C(=O)NC5CC6(C5)CC(C(=O)O)C6)c43)cc2)ccn1` (racemic) [Example 36, (Racemic)-6-(1-(4-(2-ethoxypyridin-4-yl)benzyl)-4-fluoro-1H-indole-7-carboxamido)spiro[3.3]heptane-2-carboxylic acid] the IC50 [2] was < 1 nM and the IC50 [3] was 72 nM.

For `COc1cc(C#N)cc(-c2ccc(Cn3ccc4c(F)ccc(C(=O)NC5CC6(C5)CC(C(=O)O)C6)c43)cc2)c1` (racemic) [Example 20, (racemic)-6-(1-((3′-cyano-5′-methoxy-[1,1′-biphenyl]-4-yl)methyl)-4-fluoro-1H-indole-7-carboxamido)spiro[3.3]heptane-2-carboxylic acid], the IC50 [2] was < 1 nM and the IC50 [3] was < 25 nM.

With `O=C(NC1CC2(C1)CC(C(=O)O)C2)c1ccc(F)c2ccn(Cc3ccc(OC(F)(F)F)cc3)c12` (racemic) [Example 1, (racemic)-6-(4-Fluoro-1-(4-(trifluoromethoxy)benzyl)-1H-indole-7-carboxamido)spiro[3.3]heptane-2-carboxylic acid] the IC50 [2] was < 1 nM and the IC50 [3] was 34 nM.

For `CC(c1ccc(-c2ccccc2)cc1)n1ncc2c(Cl)ccc(C(=O)NC3CC4(C3)CC(C(=O)O)C4)c21` (single isomer, unassigned) [Example 130, (Sa)-6-(1-((R) or (S)-1-([1,1′-biphenyl]-4-yl)-ethyl)-4-chloro-1H-indazole-7-carboxamido)spiro[3.3]heptane-2-carboxylic acid], the IC50 [2] was < 1 nM and the IC50 [3] was < 25 nM.

Work on `[2H]C([2H])([2H])C([2H])(c1ccc(-c2ccccc2)cc1)n1ncc2cccc(C(=O)NC3CC4(C3)CC(C(=O)O)C4)c21` (single isomer, unassigned) [Example 169, (Sa)-6-(1-((R) or (S)-1-([1,1′-Biphenyl]-4-yl)ethyl-1,2,2,2-d4)-1H-indazole-7-carboxamido)spiro[3.3]heptane-2-carboxylic acid] yielded an IC50 [2] of 1.5 nM and an IC50 [3] of 63 nM.

In the case of `N#Cc1ccc(-c2ccc(Cn3ccc4c(F)ccc(C(=O)NC5CC6(C5)CC(C(=O)O)C6)c43)cc2)cc1` (racemic) [Example 13, (racemic)-6-(1-((4′-cyano-[1,1′-biphenyl]-4-yl)methyl)-4-fluoro-1H-indole-7-carboxamido)spiro[3.3]heptane-2-carboxylic acid], the IC50 [2] is reported as < 1 nM and the IC50 [3] is reported as 39 nM.

In the case of `O=C(NC1CC2(C1)CC(C(=O)O)C2)c1ccc(F)c2ccn(Cc3ccc(-c4ccccc4)cc3)c12` (stereo not shown) [Example 9, (Sa)-6-(1-([1,1′-Biphenyl]-4-ylmethyl)-4-fluoro-1H-indole-7-carboxamido)spiro[3.3]heptane-2-carboxylic acid], the “more active enantiomer / diastereomer” value [1] is reported as “more active enantiomer”.

With `O=C(NC1CC2(C1)CC(C(=O)O)C2)c1ccc(F)c2ccn(Cc3ccc4cc(F)ccc4c3)c12` (racemic) [Example 5, (racemic)-6-(4-fluoro-1-((6-fluoronaphthalen-2-yl)methyl)-1H-indole-7-carboxamido)spiro[3.3]heptane-2-carboxylic acid] the IC50 [2] was < 1 nM and the IC50 [3] was < 25 nM.

Reference: patent US12215093B2, “Bicyclic carboxamides and methods of use thereof” (Tempest Therapeutics, Inc., priority 2018, dated 2025)
